ChEMBL document CHEMBL1145332, “Design of inhibitors of orotidine monophosphate decarboxylase using bioisosteric replacement and determination of inhibition kinetics” (J Med Chem, 2006)
pKi: −log10 of the molar value.

Target: T1, Orotidine 5'-phosphate decarboxylase (Saccharomyces cerevisiae S288c, UniProt P03962)
T1 sequence (P03962 whole entry): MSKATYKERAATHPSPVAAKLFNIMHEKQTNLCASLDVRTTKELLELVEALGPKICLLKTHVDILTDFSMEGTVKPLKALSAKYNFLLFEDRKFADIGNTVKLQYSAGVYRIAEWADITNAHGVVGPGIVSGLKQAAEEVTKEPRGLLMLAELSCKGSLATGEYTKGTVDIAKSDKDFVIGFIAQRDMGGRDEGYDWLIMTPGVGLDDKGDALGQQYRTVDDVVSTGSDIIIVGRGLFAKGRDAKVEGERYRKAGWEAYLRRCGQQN
Experiment: Inhibition of Saccharomyces cerevisiae ODCase at 25 degreeC by competitive binding assay

O=c1cnn([C@@H]2O[C@H](COP(=O)(O)O)[C@@H](O)[C@H]2O)c(=O)[nH]1 [6-AZA-URIDINE MONOPHOSPHATE]
pKi: 7.19
